Reference: publication PMC7408607, “A Multiple N-Glucosylated Peptide Epitope Efficiently Detecting Antibodies in Multiple Sclerosis” (Brain Sciences, 2020)
Read-outs that look alike come from different tables or passages of the source. Residues, ends and D or L forms follow the SMILES beside them. *: point of attachment. NH(β-D-Glc) = OC[C@H]1O[C@@H](N*)[C@H](O)[C@@H](O)[C@@H]1O

Tested on: anti-CSF114(Glc) IgG antibodies from MS patients' serum
Test: Competitive (inhibition) ELISA on plates coated with CSF114(Glc)
Assay type: binding, human
Conditions: for Log1/IC50 ± Std Error: Table S4, shortened peptides versus CSF114(Glc), one representative positive MS serum
Procedure: Washing steps were executed with an automatic Hydroflex microplate washer (Tecan Italia, Milano, Italy). After five washes with washing buffer containing 0.9% NaCl and 0.05% Tween 20, nonspecific binding sites were blocked with 100 μL per well fetal calf serum (FCS) buffer solution (10% in washing buffer) at room temperature for 60 min.
Antibody affinity was measured following the inhibition methods reported elsewhere. Semi-saturating sera dilution was calculated in preliminary titration curves (absorbance 0.7). Six different concentrations of each synthetic antigenic peptide probe were used as inhibitors. Then, sera samples at the selected dilution were incubated in parallel with increasing concentrations of the synthetic shortened peptide sequences (range 1 × 10^−10 to 1 × 10^−4) for 60 min at room temperature. All inhibition experiments were performed in duplicate or triplicate for each single MS patient’s serum positive to CSF114(Glc) separately. All experiments were repeated at least twice on two different working days.
After three washes, uninhibited antibodies were identified by adding 100 µL/well of alkaline phosphatase-conjugated anti-human immunoglobulin G (IgG, Sigma-Aldrich, Milano, Italy) diluted 1:8000 in washing buffer containing 10% FCS. The microplates were then incubated 3 h at room temperature and, after three washes, 100 µL of substrate solution consisting of 1 mg/mL p-nitrophenyl phosphate (Sigma-Aldrich, Milano, Italy) in 10% diethanolamine buffer (pH 9.8) were added. After approximately 30 min, the reaction was stopped with 1M NaOH solution (50 µL/well), and the absorbance was read in a multichannel ELISA reader (Tecan Sunrise, Männedorf, Switzerland) at 405 nm. The selected ELISA microplates, coating conditions, reagent dilutions, buffers, and incubation times were previously tested. The relationship between peptide concentrations and the absorbance values was represented graphically in absorbance inhibition percentage, and half-maximal response concentration values (IC50) were calculated.

[1] = Table S5, tri- and pentapeptides 9-22 and CSF114(Glc), representative MS serum (Figure 3)
[2] = Table S5, tri- and pentapeptides 9-22 and CSF114(Glc), representative MS serum (Figure 3), CI 95% in brackets, read-out: IC50(M)[CI95%]
[3] = serum MS1 (Figure S2A), one of three MS positive sera tested in parallel, read-out: IC50
[4] = serum MS3 (Figure S2C), read-out: IC50
[5] = shortened CSF114(Glc) series (Figure 2, Table S4), one representative positive MS patient's serum, inhibitor 1 × 10^−10 to 1 × 10^−4, absorbance 405 nm, non-linear regression least squares fit, read-out: IC50

## CC(=O)N[C@@H](CCC(=O)O)C(=O)N[C@@H](CCCNC(=N)N)C(=O)N[C@@H](CC(=O)N[C@@H]1O[C@H](CO)[C@@H](O)[C@H](O)[C@H]1O)C(=O)NCC(=O)N[C@@H](Cc1c[nH]cn1)C(N)=O [Ac-ERN(Glc)GH-NH2(20), Ac-ERN(Glc)GH-NH2] (Ac-ERD(NH(β-D-Glc))GH-NH2)
[1]
  Log1/IC50 ± StdError: 5.95 ± 0.112

## CC(=O)N[C@@H](CCC(=O)O)C(=O)N[C@@H](CCCNC(=N)N)C(=O)N[C@@H](CC(=O)N[C@@H]1O[C@H](CO)[C@@H](O)[C@H](O)[C@H]1O)C(=O)NCC(=O)N[C@@H](CO)C(N)=O [Ac-ERN(Glc)GS-NH2(16), Ac-ERN(Glc)GS-NH2] (Ac-ERD(NH(β-D-Glc))GS-NH2)
[1]
  Log1/IC50 ± StdError: 5.677 ± 0.1444

## CC(=O)N[C@@H](CCC(=O)O)C(=O)N[C@@H](CCCNC(=N)N)C(=O)N[C@@H](CC(=O)N[C@@H]1O[C@H](CO)[C@@H](O)[C@H](O)[C@H]1O)C(=O)NCC(=O)N[C@H](C(N)=O)[C@@H](C)O [Ac-ERN(Glc)GT-NH2(17), Ac-ERN(Glc)GT-NH2] (Ac-ERD(NH(β-D-Glc))GT-NH2)
[1]
  Log1/IC50 ± StdError: 6.23 ± 0.14

## CC(=O)N[C@@H](CCC(=O)O)C(=O)N[C@@H](CCCNC(=N)N)C(=O)N[C@@H](CC(=O)N[C@@H]1O[C@H](CO)[C@@H](O)[C@H](O)[C@H]1O)C(=O)N[C@@H](CCCCN)C(=O)N[C@@H](Cc1c[nH]cn1)C(N)=O [Ac-ERN(Glc)KH-NH2(21), Ac-ERN(Glc)KH-NH2] (Ac-ERD(NH(β-D-Glc))KH-NH2)
[1]
  Log1/IC50 ± StdError: 5.98 ± 0.1482

## CC(=O)N[C@@H](CCC(=O)O)C(=O)N[C@@H](CCCNC(=N)N)C(=O)N[C@@H](CC(=O)N[C@@H]1O[C@H](CO)[C@@H](O)[C@H](O)[C@H]1O)C(=O)N[C@@H](CCCCN)C(=O)N[C@@H](CO)C(N)=O [Ac-ERN(Glc)KS-NH2(18), Ac-ERN(Glc)KS-NH2] (Ac-ERD(NH(β-D-Glc))KS-NH2)
[1]
  Log1/IC50 ± StdError: 5.59 ± 0.19

## CC(=O)N[C@@H](CCCCN)C(=O)NCC(=O)N[C@@H](CC(=O)N[C@@H]1O[C@H](CO)[C@@H](O)[C@H](O)[C@H]1O)C(=O)N[C@@H](C)C(=O)N[C@H](C(N)=O)[C@@H](C)O [Ac-KGN(Glc)AT-NH2(22), Ac-KGN(Glc)AT-NH2] (Ac-KGD(NH(β-D-Glc))AT-NH2)
[1]
  Log1/IC50 ± StdError: 6.22 ± 0.07

## CC(=O)N[C@@H](CC(=O)N[C@@H]1O[C@H](CO)[C@@H](O)[C@H](O)[C@H]1O)C(=O)N[C@@H](C)C(=O)N[C@H](C(N)=O)[C@@H](C)O [Ac-N(Glc)AT-NH2(15), Ac-N(Glc)AT-NH2]
[1]
  Log1/IC50 ± StdError: 5.005 ± 0.05558
[2]
  IC50: 7e-06 M

## CC(=O)N[C@@H](CC(=O)N[C@@H]1O[C@H](CO)[C@@H](O)[C@H](O)[C@H]1O)C(=O)NCC(=O)N[C@@H](Cc1c[nH]cn1)C(N)=O [Ac-N(Glc)GH-NH2(13), Ac-N(Glc)GH-NH2]
[1]
  Log1/IC50 ± StdError: 5.226 ± 0.0433
[2]
  IC50: 6.94e-06 M

## CC(=O)N[C@@H](CC(=O)N[C@@H]1O[C@H](CO)[C@@H](O)[C@H](O)[C@H]1O)C(=O)NCC(=O)N[C@@H](CO)C(N)=O [Ac-N(Glc)GS-NH2(9), Ac-N(Glc)GS-NH2]
[1]
  Log1/IC50 ± StdError: 5.137 ± 0.063

## CC(=O)N[C@@H](CC(=O)N[C@@H]1O[C@H](CO)[C@@H](O)[C@H](O)[C@H]1O)C(=O)NCC(=O)N[C@H](C(N)=O)[C@@H](C)O [Ac-N(Glc)GT-NH2(10), Ac-N(Glc)GT-NH2]
[1]
  Log1/IC50 ± StdError: 5.129 ± 0.1170

## CC(=O)N[C@@H](CC(=O)N[C@@H]1O[C@H](CO)[C@@H](O)[C@H](O)[C@H]1O)C(=O)N[C@@H](CCCCN)C(=O)N[C@@H](Cc1c[nH]cn1)C(N)=O [Ac-N(Glc)KH-NH2(14), Ac-N(Glc)KH-NH2]
[1]
  Log1/IC50 ± StdError: 5.160 ± 0.01636

## CC(=O)N[C@@H](CC(=O)N[C@@H]1O[C@H](CO)[C@@H](O)[C@H](O)[C@H]1O)C(=O)N[C@@H](CCCCN)C(=O)N[C@@H](CO)C(N)=O [Ac-N(Glc)KS-NH2(11), Ac-N(Glc)KS-NH2]
[1]
  Log1/IC50 ± StdError: 5.942 ± 0.1911

## CC(=O)N[C@@H](CC(=O)N[C@@H]1O[C@H](CO)[C@@H](O)[C@H](O)[C@H]1O)C(=O)N[C@@H](CCCCN)C(=O)N[C@H](C(N)=O)[C@@H](C)O [Ac-N(Glc)KT-NH2(12), Ac-N(Glc)KT-NH2]
[1]
  Log1/IC50 ± StdError: 6.010 ± 0.06024

## CSCC[C@H](NC(=O)[C@H](Cc1c[nH]c2ccccc12)NC(=O)CNC(=O)[C@H](Cc1ccc(O)cc1)NC(=O)[C@@H]1CCCN1C(=O)[C@H](C)NC(=O)[C@H](CC(C)C)NC(=O)[C@H](Cc1ccccc1)NC(=O)[C@@H](NC(=O)[C@H](CO)NC(=O)[C@H](Cc1c[nH]cn1)NC(=O)CNC(=O)[C@H](CC(=O)N[C@@H]1O[C@H](CO)[C@@H](O)[C@H](O)[C@H]1O)NC(=O)[C@H](CCCNC(=N)N)NC(=O)[C@H](CCC(=O)O)NC(=O)[C@@H](NC(=O)[C@H](CCCNC(=N)N)NC(=O)[C@@H]1CCCN1C(=O)[C@@H](N)[C@@H](C)O)C(C)C)C(C)C)C(=O)N[C@H](C(=O)N[C@@H](CCCCN)C(=O)O)C(C)C [CSF114(Glc) (1), CSF114(Glc), reference compound]
  Log1/IC50 ± Std Error: 6.14 ± 0.083
[1]
  Log1/IC50 ± StdError: 6.46 ± 0.083
[3]
  IC50: 5.2e-07 M
[4]
  IC50: 5.12e-09 M
[5]
  IC50: 9e-09 M

## CC(=O)N[C@@H](CC(=O)N[C@@H]1O[C@H](CO)[C@@H](O)[C@H](O)[C@H]1O)C(=O)NCCCOCCOCCOCCCNC(=O)CCC(=O)NCCCC[C@H](NC(=O)CCC(=O)NCCCOCCOCCOCCCNC(=O)[C@H](CC(=O)N[C@@H]1O[C@H](CO)[C@@H](O)[C@H](O)[C@H]1O)NC(C)=O)C(=O)NCCCC[C@H](NC(=O)[C@H](CCCCNC(=O)CCC(=O)NCCCOCCOCCOCCCNC(=O)[C@H](CC(=O)N[C@@H]1O[C@H](CO)[C@@H](O)[C@H](O)[C@H]1O)NC(C)=O)NC(=O)CCC(=O)NCCCOCCOCCOCCCNC(=O)[C@H](CC(=O)N[C@@H]1O[C@H](CO)[C@@H](O)[C@H](O)[C@H]1O)NC(C)=O)C(=O)NCCC(=O)O [N-Glc MEP (24)]
[3]
  IC50: 2.15e-08 M
[4]
  IC50: 2.15e-08 M

## CC(=O)N[C@H](C(=O)N[C@@H](CCC(=O)O)C(=O)N[C@@H](CCCNC(=N)N)C(=O)N[C@@H](CC(=O)N[C@@H]1O[C@H](CO)[C@@H](O)[C@H](O)[C@H]1O)C(=O)NCC(=O)N[C@@H](Cc1c[nH]cn1)C(=O)N[C@@H](CO)C(=O)N[C@H](C(N)=O)C(C)C)C(C)C [[Asn7(Glc)]CSF114(4‒11) (6), [Asn^7(Glc)] CSF114(4–11)] (Ac-VERD(NH(β-D-Glc))GHSV-NH2)
  Log1/IC50 ± Std Error: 6.2 ± 0.29

## CC(=O)N[C@@H](CCC(=O)O)C(=O)N[C@@H](CCCNC(=N)N)C(=O)N[C@@H](CC(=O)N[C@@H]1O[C@H](CO)[C@@H](O)[C@H](O)[C@H]1O)C(=O)NCC(=O)N[C@@H](Cc1c[nH]cn1)C(=O)N[C@@H](CO)C(N)=O [[Asn7(Glc)]CSF114(5‒10) (7), [Asn^7(Glc)] CSF114(5–10)] (Ac-ERD(NH(β-D-Glc))GHS-NH2)
  Log1/IC50 ± Std Error: 5.4 ± 0.10
[5]
  IC50: 3.5e-06 M

## CC(=O)N[C@@H](CCCNC(=N)N)C(=O)N[C@@H](CC(=O)N[C@@H]1O[C@H](CO)[C@@H](O)[C@H](O)[C@H]1O)C(=O)NCC(=O)N[C@@H](Cc1c[nH]cn1)C(N)=O [[Asn7(Glc)]CSF114(6‒9) (8), [Asn^7(Glc)] CSF114(6–9)] (Ac-RD(NH(β-D-Glc))GH-NH2)
  Log1/IC50 ± Std Error: 5.7 ± 0.25
